For this test, the target named is T1, Recombinant human TPH1 (MBP tagged) (Homo sapiens, UniProt P17752).
T1 construct: cloning full length human TPH1 cDNA in to a bacterial pMAL-c5E expression vector; made in house; host or cells: E. coli BL21 (DE3)
T1 sequence (P17752 1-444): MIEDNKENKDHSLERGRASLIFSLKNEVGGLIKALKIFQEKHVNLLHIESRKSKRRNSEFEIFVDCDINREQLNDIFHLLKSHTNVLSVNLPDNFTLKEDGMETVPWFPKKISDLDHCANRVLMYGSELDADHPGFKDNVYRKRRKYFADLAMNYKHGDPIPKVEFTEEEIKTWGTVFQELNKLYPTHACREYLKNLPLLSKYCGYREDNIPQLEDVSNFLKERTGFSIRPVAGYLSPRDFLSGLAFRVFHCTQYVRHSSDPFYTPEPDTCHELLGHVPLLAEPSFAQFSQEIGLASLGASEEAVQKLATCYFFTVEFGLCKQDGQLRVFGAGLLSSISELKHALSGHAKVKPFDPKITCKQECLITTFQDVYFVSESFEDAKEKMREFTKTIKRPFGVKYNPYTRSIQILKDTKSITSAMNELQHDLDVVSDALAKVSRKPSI
Put plainly: TPH1 in vitro inhibition assay (kinetic fluorescence). The format is biochemical. Particulars: read-out: TPH1 Range (TPH1 inhibition IC50). The procedure, abridged:
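Final mix: 15 nM MBP-TPH1, 30 μM Trp, 36 μM 6-methyltetrahydropterin, 25 μM ferrous ammonium sulfate, 50 mM MES pH 7.1, 1% DMSO, room temperature.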

We go through 17 molecules from patent US11759462B2, “Spirocyclic compounds as tryptophan hydroxylase inhibitors” (priority 2013, dated 2023).

SMILES strings stand for the structures. pIC50: −log10 of the molar value.

As usually defined, the pIC50 is the negative decadic logarithm of the IC50, by convention in mol/L. As for `Cc1ccn(-c2cc(-c3cccc(C#N)c3)ccc2[C@@H](Oc2cc(N3CCC4(CC3)CN[C@H](C(=O)O)C4)nc(N)n2)C(F)(F)F)n1` [Example 1w, (S)-8-(2-amino-6-((R)-1-(3′-cyano-3-(3-methyl-1H-pyrazol-1-yl)-[1,1′-biphenyl]-4-yl)-2,2,2-trifluoroethoxy)pyrimidin-4-yl)-2,8-diazaspiro[4.5]decane-3-carboxylic acid], the pIC50 is > 7.30.
Take `CC(=O)NCc1ccc(-c2ccc([C@@H](Oc3cc(N4CCC5(CC4)CN[C@H](C(=O)O)C5)nc(N)n3)C(F)(F)F)c(-n3ccc(C)n3)c2)cc1` [Example 1x, (S)-8-(6-((R)-1-(4′-(acetamidomethyl)-3-(3-methyl-1H-pyrazol-1-yl)-[1,1′-biphenyl]-4-yl)-2,2,2-trifluoroethoxy)-2-aminopyrimidin-4-yl)-2,8-diazaspiro[4.5]decane-3-carboxylic acid]: the negative logarithm of the IC50 (pIC50) was > 7.30.
In the case of `Cc1ccn(-c2cc(-c3ccc4cccnc4c3)ccc2[C@@H](Oc2cc(N3CCC4(CC3)CN[C@H](C(=O)O)C4)nc(N)n2)C(F)(F)F)n1` [Example 1z, (S)-8-(2-amino-6-((R)-2,2,2-trifluoro-1-(2-(3-methyl-1H-pyrazol-1-yl)-4-(quinolin-7-yl)phenyl)ethoxy)pyrimidin-4-yl)-2,8-diazaspiro[4.5]decane-3-carboxylic acid] it was > 7.30.
Consider `COc1ccc([C@@H](Oc2cc(N3CCC4(CC3)CN[C@H](C(=O)O)C4)nc(N)n2)C(F)(F)F)c(-n2ccc(C)n2)c1` [Example 10l, (S)-8-(2-amino-6-((R)-2,2,2-trifluoro-1-(4-methoxy-2-(3-methyl-1H-pyrazol-1-yl)phenyl)ethoxy)pyrimidin-4-yl)-2,8-diazaspiro[4.5]decane-3-carboxylic acid], for which the negative logarithm of the IC50 (pIC50) was 6.52 to 7.30.
In the case of `Cc1ccn(-c2cc(Br)ccc2[C@@H](Oc2cc(N3CCC4(CC3)CN[C@H](C(=O)O)C4)nc(N)n2)C(F)(F)F)n1` [Example 10m, (S)-8-(2-amino-6-((R)-1-(4-bromo-2-(3-methyl-1H-pyrazol-1-yl)phenyl)-2,2,2-trifluoroethoxy)pyrimidin-4-yl)-2,8-diazaspiro[4.5]decane-3-carboxylic acid], the pIC50 is > 7.30.
For `Cc1ccn(-c2ccc(Br)cc2[C@@H](Oc2cc(N3CCC4(CC3)CN[C@H](C(=O)O)C4)nc(N)n2)C(F)(F)F)n1` [Example 10n, (S)-8-(2-amino-6-((R)-1-(5-bromo-2-(3-methyl-1H-pyrazol-1-yl)phenyl)-2,2,2-trifluoroethoxy)pyrimidin-4-yl)-2,8-diazaspiro[4.5]decane-3-carboxylic acid], the pIC50 is > 7.30.
Turning to `Nc1nc(O[C@H](c2ccc(Cl)cc2-n2ccc(C(F)(F)F)n2)C(F)(F)F)cc(N2CCC3(CC2)CN[C@H](C(=O)O)C3)n1` [Example 10p, (S)-8-(2-amino-6-((R)-1-(4-chloro-2-(3-(trifluoromethyl)-1H-pyrazol-1-yl)phenyl)-2,2,2-trifluoroethoxy)pyrimidin-4-yl)-2,8-diazaspiro[4.5]decane-3-carboxylic acid], the negative logarithm of the IC50 (pIC50) was 6.52 to 7.30.
For the molecule `CC(C)(C)c1ccn(-c2cc(Cl)ccc2[C@@H](Oc2cc(N3CCC4(CC3)CN[C@H](C(=O)O)C4)nc(N)n2)C(F)(F)F)n1` [Example 10pa, (S)-8-(2-amino-6-((R)-1-(2-(3-(tert-butyl)-1H-pyrazol-1-yl)-4-chlorophenyl)-2,2,2-trifluoroethoxy)pyrimidin-4-yl)-2,8-diazaspiro[4.5]decane-3-carboxylic acid], the pIC50 was 6.52 to 7.30.
In the case of `CC(C)c1ccn(-c2cc(Cl)ccc2[C@@H](Oc2cc(N3CCC4(CC3)CN[C@H](C(=O)O)C4)nc(N)n2)C(F)(F)F)n1` [Example 10q, (S)-8-(2-amino-6-((R)-1-(4-chloro-2-(3-isopropyl-1H-pyrazol-1-yl)phenyl)-2,2,2-trifluoroethoxy)pyrimidin-4-yl)-2,8-diazaspiro[4.5]decane-3-carboxylic acid], the pIC50 was > 7.30.
For `Nc1nc(O[C@H](c2ccc(Cl)cc2-n2ccc(C3CC3)n2)C(F)(F)F)cc(N2CCC3(CC2)CN[C@H](C(=O)O)C3)n1` [Example 10r, (S)-8-(2-amino-6-((R)-1-(4-chloro-2-(3-cyclopropyl-1H-pyrazol-1-yl)phenyl)-2,2,2-trifluoroethoxy)pyrimidin-4-yl)-2,8-diazaspiro[4.5]decane-3-carboxylic acid], the negative logarithm of the IC50 (pIC50) was > 7.30.
As to `CCc1ccc([C@@H](Oc2cc(N3CCC4(CC3)CN[C@H](C(=O)O)C4)nc(N)n2)C(F)(F)F)c(-n2ccc(C)n2)c1` [Example 12a, (S)-8-(2-amino-6-((R)-1-(4-ethyl-2-(3-methyl-H-pyrazol-1-yl)phenyl)-2,2,2-trifluoroethoxy)pyrimidin-4-yl)-2,8-diazaspiro[4.5]decane-3-carboxylic acid], the pIC50 was 6.52 to 7.30.
As for `Cc1ccn(-c2cc(C(O)CO)ccc2[C@@H](Oc2cc(N3CCC4(CC3)CN[C@H](C(=O)O)C4)nc(N)n2)C(F)(F)F)n1` (stereo partly drawn) [Example 13, (3S)-8-(2-amino-6-((1R)-1-(4-(1,2-dihydroxyethyl)-2-(3-methyl-1H-pyrazol-1-yl)phenyl)-2,2,2-trifluoroethoxy)pyrimidin-4-yl)-2,8-diazaspiro[4.5]decane-3-carboxylic acid], the pIC50 is 6.52 to 7.30.
As to `Cc1ccn(-c2cc(C#N)ccc2[C@@H](Oc2cc(N3CCC4(CC3)CN[C@H](C(=O)O)C4)nc(N)n2)C(F)(F)F)n1` [Example 14, (S)-8-(2-amino-6-((R)-1-(4-cyano-2-(3-methyl-H-pyrazol-1-yl)phenyl)-2,2,2-trifluoroethoxy)pyrimidin-4-yl)-2,8-diazaspiro[4.5]decane-3-carboxylic acid], the negative logarithm of the IC50 (pIC50) is > 7.30.
As for `Cc1ccn(-c2cc(C(N)=O)ccc2[C@@H](Oc2cc(N3CCC4(CC3)CN[C@H](C(=O)O)C4)nc(N)n2)C(F)(F)F)n1` [Example 15, (S)-8-(2-amino-6-((R)-1-(4-carbamoyl-2-(3-methyl-H-pyrazol-1-yl)phenyl)-2,2,2-trifluoroethoxy)pyrimidin-4-yl)-2,8-diazaspiro[4.5]decane-3-carboxylic acid], the negative logarithm of the IC50 (pIC50) was 6.52 to 7.30.
Turning to `CCOC(=O)c1ccc([C@@H](Oc2cc(N3CCC4(CC3)CN[C@H](C(=O)O)C4)nc(N)n2)C(F)(F)F)c(-n2ccc(C)n2)c1` [Example 17, (S)-8-(2-amino-6-((R)-1-(4-(ethoxycarbonyl)-2-(3-methyl-H-pyrazol-1-yl)phenyl)-2,2,2-trifluoroethoxy)pyrimidin-4-yl)-2,8-diazaspiro[4.5]decane-3-carboxylic acid], the pIC50 was > 7.30.
Take `Cc1ccn(-c2cc(C(=O)OC(C)(C(F)(F)F)C(F)(F)F)ccc2[C@@H](Oc2cc(N3CCC4(CC3)CN[C@H](C(=O)O)C4)nc(N)n2)C(F)(F)F)n1` [Example 18a, (S)-8-(2-amino-6-((R)-2,2,2-trifluoro-1-(4-(((1,1,1,3,3,3-hexafluoro-2-methylpropan-2-yl)oxy)carbonyl)-2-(3-methyl-1H-pyrazol-1-yl)phenyl)ethoxy)pyrimidin-4-yl)-2,8-diazaspiro[4.5]decane-3-carboxylic acid]: the pIC50 was 6.52 to 7.30.
In the case of `CCCOC(=O)c1ccc([C@@H](Oc2cc(N3CCC4(CC3)CN[C@H](C(=O)O)C4)nc(N)n2)C(F)(F)F)c(-n2ccc(C)n2)c1` [Example 18b, (S)-8-(2-amino-6-((R)-2,2,2-trifluoro-1-(2-(3-methyl-1H-pyrazol-1-yl)-4-(propoxycarbonyl)phenyl)ethoxy)pyrimidin-4-yl)-2,8-diazaspiro[4.5]decane-3-carboxylic acid] it was > 7.30.
